From US20060276520A1 (priority 2002, published 2006)
Where “and” joins values, the source holds several entries; their conditions need not be identical. Equal entries are not always repeated. Where two headings read alike, the source gives them in different places.

What was measured:
Experiment in all cases: biochemical
[1] = target: T1, APC2/APC11 (Homo sapiens, UniProt Q9NYG5+Q9UJX6)
[2] = target: MDM2/P53 (Homo sapiens, UniProt Q00987)
[3] = target: T1, APC2/APC11; remark: listed apart in the source
[4] = target: T2, ROC2/CUL5 (Homo sapiens, UniProt Q93034+Q9UBF6)
T2 sequence (Q9UBF6 1-113): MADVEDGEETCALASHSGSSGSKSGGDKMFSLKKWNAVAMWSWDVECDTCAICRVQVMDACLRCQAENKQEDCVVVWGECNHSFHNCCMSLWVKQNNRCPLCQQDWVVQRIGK
T2 sequence (Q93034 1-780): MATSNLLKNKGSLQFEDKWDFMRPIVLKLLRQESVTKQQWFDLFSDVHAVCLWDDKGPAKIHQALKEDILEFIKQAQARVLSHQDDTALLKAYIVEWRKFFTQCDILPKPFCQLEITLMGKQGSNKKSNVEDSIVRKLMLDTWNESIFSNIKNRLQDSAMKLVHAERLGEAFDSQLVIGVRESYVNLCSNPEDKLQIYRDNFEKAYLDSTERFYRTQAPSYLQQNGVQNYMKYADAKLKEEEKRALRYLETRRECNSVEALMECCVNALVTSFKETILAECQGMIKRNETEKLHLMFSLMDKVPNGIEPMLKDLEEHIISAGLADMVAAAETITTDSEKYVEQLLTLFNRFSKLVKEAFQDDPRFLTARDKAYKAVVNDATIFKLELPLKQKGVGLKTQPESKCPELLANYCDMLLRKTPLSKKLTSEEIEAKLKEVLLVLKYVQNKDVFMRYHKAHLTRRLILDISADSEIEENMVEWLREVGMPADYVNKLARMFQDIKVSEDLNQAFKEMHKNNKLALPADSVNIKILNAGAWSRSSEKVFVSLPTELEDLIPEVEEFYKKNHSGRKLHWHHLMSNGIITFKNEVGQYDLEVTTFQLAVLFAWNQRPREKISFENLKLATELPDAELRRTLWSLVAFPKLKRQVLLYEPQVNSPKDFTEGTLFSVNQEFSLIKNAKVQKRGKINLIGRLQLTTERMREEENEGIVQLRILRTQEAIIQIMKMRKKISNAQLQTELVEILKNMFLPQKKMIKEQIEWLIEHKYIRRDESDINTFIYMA

[5] = target: ROC1/CUL1 (Homo sapiens, UniProt P62877+Q13616)
ROC1/CUL1, sequence (P62877 whole entry): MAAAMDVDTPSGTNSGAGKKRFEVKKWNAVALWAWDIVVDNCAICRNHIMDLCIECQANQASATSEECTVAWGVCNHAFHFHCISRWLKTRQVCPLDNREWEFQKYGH
ROC1/CUL1, sequence (Q13616 whole entry): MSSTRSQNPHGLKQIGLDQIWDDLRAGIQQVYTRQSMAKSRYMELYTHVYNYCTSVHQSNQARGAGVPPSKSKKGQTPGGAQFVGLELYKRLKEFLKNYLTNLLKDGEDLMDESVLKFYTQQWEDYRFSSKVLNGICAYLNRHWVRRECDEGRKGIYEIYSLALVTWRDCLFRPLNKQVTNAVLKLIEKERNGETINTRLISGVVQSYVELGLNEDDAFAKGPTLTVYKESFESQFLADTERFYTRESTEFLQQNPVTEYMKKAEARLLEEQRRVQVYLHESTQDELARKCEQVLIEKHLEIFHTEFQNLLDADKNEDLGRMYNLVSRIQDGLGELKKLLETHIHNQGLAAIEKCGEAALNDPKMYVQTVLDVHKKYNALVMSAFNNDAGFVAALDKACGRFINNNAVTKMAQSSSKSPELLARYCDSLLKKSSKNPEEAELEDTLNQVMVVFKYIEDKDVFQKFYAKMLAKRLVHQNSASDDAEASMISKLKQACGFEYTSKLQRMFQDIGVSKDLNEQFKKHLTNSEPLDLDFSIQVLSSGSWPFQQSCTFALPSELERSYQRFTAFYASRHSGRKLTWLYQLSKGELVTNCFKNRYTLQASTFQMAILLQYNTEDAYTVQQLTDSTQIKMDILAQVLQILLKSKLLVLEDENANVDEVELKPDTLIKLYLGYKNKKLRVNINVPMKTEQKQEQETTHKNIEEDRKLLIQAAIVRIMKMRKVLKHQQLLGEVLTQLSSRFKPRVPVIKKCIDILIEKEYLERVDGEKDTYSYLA

[6] = target: ROC1/CUL2 (Homo sapiens, UniProt P62877+Q13617)
ROC1/CUL2, sequence (P62877 whole entry): as the sequence (P62877 whole entry) above
ROC1/CUL2, sequence (Q13617 whole entry): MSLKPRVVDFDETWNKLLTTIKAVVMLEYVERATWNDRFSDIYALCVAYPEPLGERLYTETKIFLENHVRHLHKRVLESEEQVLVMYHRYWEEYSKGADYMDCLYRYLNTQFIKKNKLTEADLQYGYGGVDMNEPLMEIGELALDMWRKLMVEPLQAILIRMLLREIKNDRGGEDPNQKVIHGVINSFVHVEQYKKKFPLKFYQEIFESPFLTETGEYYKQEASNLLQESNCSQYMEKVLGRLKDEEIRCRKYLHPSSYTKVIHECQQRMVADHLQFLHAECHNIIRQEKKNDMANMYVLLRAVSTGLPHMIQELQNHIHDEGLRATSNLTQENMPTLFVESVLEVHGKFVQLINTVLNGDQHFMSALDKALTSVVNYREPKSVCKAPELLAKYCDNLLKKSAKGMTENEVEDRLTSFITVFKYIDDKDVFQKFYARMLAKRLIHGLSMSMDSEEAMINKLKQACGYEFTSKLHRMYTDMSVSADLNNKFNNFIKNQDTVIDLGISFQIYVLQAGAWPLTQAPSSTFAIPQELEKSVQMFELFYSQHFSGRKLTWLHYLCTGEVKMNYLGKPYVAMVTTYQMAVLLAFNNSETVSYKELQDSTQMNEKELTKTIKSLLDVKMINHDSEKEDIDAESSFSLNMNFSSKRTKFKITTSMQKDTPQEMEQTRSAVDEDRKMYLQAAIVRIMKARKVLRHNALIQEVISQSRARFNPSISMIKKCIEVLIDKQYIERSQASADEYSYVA

MDM2/P53, sequence (Q00987 whole entry): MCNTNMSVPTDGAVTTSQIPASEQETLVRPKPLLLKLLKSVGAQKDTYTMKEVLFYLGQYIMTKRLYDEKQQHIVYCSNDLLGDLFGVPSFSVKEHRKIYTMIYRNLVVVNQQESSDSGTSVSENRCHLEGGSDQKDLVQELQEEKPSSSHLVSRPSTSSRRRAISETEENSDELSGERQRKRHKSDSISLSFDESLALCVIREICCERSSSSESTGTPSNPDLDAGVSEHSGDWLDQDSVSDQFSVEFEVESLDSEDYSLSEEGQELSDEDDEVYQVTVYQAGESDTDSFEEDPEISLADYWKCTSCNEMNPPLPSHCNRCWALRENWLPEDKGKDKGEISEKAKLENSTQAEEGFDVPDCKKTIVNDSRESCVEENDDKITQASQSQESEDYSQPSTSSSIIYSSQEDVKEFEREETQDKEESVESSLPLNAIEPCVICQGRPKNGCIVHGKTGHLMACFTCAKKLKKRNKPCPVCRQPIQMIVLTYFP
T1 sequence (Q9UJX6 whole entry): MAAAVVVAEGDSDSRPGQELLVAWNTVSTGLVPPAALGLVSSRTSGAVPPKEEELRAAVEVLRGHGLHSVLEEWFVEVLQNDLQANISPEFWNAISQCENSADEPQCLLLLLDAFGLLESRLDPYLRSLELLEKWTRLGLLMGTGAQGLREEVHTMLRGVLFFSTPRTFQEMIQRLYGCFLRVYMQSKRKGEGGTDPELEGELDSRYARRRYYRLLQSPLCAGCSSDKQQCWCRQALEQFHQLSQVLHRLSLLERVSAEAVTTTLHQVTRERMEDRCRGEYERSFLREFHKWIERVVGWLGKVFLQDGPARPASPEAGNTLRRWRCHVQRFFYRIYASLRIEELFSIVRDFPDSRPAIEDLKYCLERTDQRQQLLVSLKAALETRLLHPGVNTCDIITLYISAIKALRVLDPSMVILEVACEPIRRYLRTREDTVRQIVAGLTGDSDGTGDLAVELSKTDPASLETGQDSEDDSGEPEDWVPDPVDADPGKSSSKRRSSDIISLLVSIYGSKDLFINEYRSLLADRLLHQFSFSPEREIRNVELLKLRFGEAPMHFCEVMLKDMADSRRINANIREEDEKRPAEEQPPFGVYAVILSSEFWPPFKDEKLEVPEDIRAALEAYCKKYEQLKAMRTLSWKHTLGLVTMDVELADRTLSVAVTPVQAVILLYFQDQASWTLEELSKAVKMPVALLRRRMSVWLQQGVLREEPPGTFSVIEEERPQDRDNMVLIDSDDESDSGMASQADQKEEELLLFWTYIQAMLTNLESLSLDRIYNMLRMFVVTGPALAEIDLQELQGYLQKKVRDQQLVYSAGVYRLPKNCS
T1 sequence (Q9NYG5 whole entry): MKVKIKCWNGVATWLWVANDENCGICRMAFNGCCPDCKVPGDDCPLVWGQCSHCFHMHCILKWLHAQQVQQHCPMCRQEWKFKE

Structure (SMILES) | IC50 [1] | IC50 [2] | other results
O=C1/C(=C/c2ccc(-c3cccc4ccccc34)o2)SC(=S)N1Cc1ccccc1 [Compound 30, (5Z)-3-benzyl-5-{[5-(1-nephthyl)-2-furyl]methylene}-2-thioxo-1,3-thiazolidin-4-one] | 5.49 µM | 2.32 µM | 
CN1C(=O)/C(=C\c2ccc(-c3cccc(Br)c3)o2)SC1=S [Compound 50, (5E)-5-{[5-(3-bromophenyl)-2-furyl]methylene]-3-methyl-2-thioxo-1,3-thiazolidin-4-one] | 3.7 µM | 2.69 µM | 
Cc1c(N2C(=O)/C(=C\c3ccc(-c4ccc(Br)cc4)o3)SC2=S)c(=O)n(-c2ccccc2)n1C [Compound 51, (5E)-5-{[5-(4-bromophenyl)-2-furyl]methylene}-3-(1,5-dimethyl-3-oxo-2-phenyl-2,3-dihydro-1H-pyrazol-4-yl)-2-thioxo-1,3-thiazolidin-4-one] | 12.1 µM | 9.24 µM | 
O=C1/C(=C\c2ccc(-c3cccc(C(F)(F)F)c3)o2)SC(=S)N1Cc1ccco1 [Compound 55, (5E)-3-(2-furylmethyl)-2-thioxo-5-({5-[3-(trifluoromethyl)phenyl]-2-furyl}methylene)-1,3-thiazolidin-4-one] |  |  | IC50 [3]: 4 µM and 10 µM
COc1ccc(CN2C(=O)/C(=C/c3ccc(-c4ccccc4Cl)o3)SC2=S)cc1 [Compound 274, (5Z)-5-{[5-(2-chlorophenyl)-2-furyl]methylene}-3-(4-methoxybenzyl)-2-thioxo-11,3-thiazolidin-4-one] | 0.11 µM | 1.18 µM | 
O=C1/C(=C/c2ccc(-c3ccccc3Cl)o2)SC(=S)N1Cc1ccco1 [Compound 280, (5Z)-5-{[5-(2-chlorophenyl)-2-furyl]methylene}-3-(2-furylmethyl)-2-thioxo-1,3-thiazolidin-4-one] | 0.56 µM | 0.25 µM | 
C=CCN1C(=O)/C(=C/c2ccc(-c3cccc(Cl)c3)o2)SC1=S [Compound 284, (5Z)-3-allyl-5-{[5-(3-chlorophenyl)-2-furyl]methylene}-2-thioxo-1,3-thiazolidin-4-one] |  |  | IC50 [4]: 0.2 µM; IC50 [5]: 0.8 µM; IC50 [6]: 0.8 µM
C=CCN1C(=O)C(Cc2ccc(-c3ccccc3Cl)o2)SC1=S (stereo not shown) [Compound 304, 3-allyl-5-{[5-(2-chlorophenyl)-2-furyl]methyl}-2-thioxo-1,3-thiazolidin-4-one] |  |  | IC50 [4]: 0.8 µM; IC50 [5]: 1 µM; IC50 [6]: 1 µM

Continued, in another order:

IC50 [1] | IC50 [2] | Structure (SMILES) | other results
0.91 µM | 4.92 µM | O=C(O)c1cccc(-c2ccc(/C=C3/SC(=S)N(c4cccc(Cl)c4)C3=O)o2)c1 [Compound 46, 3-(5-{(E)-[3-(3-chlorophenyl)-4-oxo-2-thioxo-1,3-thiazolidin-5-ylidene]methyl}-2-furyl)benzoic acid] | 
0.035 µM | 0.074 µM | O=C1/C(=C\c2ccc(-c3cccc(C(F)(F)F)c3)o2)SC(=S)N1Cc1ccccc1 [Compound 54, (5E)-3-benzyl-2-thioxo-5-({5-[3-(trifluoromethyl)phenyl]-2-furyl}methylene)-1,3-thiazolidin-4-one] | 
5 µM | 1.5 µM | O=C(O)CN1C(=O)/C(=C\c2ccc(-c3ccc(Cl)c(Cl)c3)o2)SC1=S [Compound 82, ((5E)-5-{[5-(3,4-dichlorophenyl)-2-furyl]methylene}-4-oxo-2-thioxo-1,3-thiazolidin-3-yl)acetic acid] | 
10 µM | 0.56 µM | COc1ccc(N2C(=O)/C(=C\c3ccc(-c4ccc(Br)cc4)o3)SC2=S)cc1 [Compound 96, (5E)-5-{[5-(4-bromophenyl)-2-furyl]methylene}-3-(4-methoxyphenyl)-2-thioxo-1,3-thiazolidin-4-one] | 
2 µM |  | COc1ccc(-c2ccc(/C=C3/SC(=S)NC3=O)o2)cc1Cl [Compound 172, (5E)-5-{[5-(3-chloro-4-methoxyphenyl)-2-furyl]methylene}-2-thioxo-1,3-thiazolidin-4-one] | IC50 [3]: 2 µM
0.32 µM | 1.16 µM | O=C1/C(=C/c2ccc(-c3ccccc3Cl)o2)SC(=S)N1CCc1cccs1 [Compound 275, (5Z)-5-{[5-(2-chlorophenyl)-2-furyl]methylene}-3-[2-(2-thienyl)ethyl]-2-thioxo-1,3-thiazolidin-4-one] | 
0.41 µM | 0.93 µM | CC(C)(C)OC(=O)[C@H](Cc1ccccc1)NC(=O)CN1C(=O)/C(=C/c2ccc(-c3ccccc3Cl)o2)SC1=S [Compound 301, tert-butyl N-[((5Z)-5-{[5-(2-chlorophenyl)-2-furyl]methylene}-4-oxo-2-thioxo-1,3-thiazolidin-3-yl)acetyl]phenylalaninate] | 
